Patent publication US5708007A, “2-(piperidin-4-yl, pyridin-4-yl and tetrahydropyridin-4-yl) benzofuran-7-ol and carbamate derivatives for treating memory dysfunction” (priority 1996, dated 1998)

Molecular target: T1, Brain AChE (Rattus norvegicus, UniProt P37136)
T1 construct: corpora striata dissected free, weighed and homogenized in 19 volumes; from tissue; host or cells: corpora striata of male Wistar rats, crude homogenate in 0.05M phosphate buffer
T1 sequence (P37136 32-614): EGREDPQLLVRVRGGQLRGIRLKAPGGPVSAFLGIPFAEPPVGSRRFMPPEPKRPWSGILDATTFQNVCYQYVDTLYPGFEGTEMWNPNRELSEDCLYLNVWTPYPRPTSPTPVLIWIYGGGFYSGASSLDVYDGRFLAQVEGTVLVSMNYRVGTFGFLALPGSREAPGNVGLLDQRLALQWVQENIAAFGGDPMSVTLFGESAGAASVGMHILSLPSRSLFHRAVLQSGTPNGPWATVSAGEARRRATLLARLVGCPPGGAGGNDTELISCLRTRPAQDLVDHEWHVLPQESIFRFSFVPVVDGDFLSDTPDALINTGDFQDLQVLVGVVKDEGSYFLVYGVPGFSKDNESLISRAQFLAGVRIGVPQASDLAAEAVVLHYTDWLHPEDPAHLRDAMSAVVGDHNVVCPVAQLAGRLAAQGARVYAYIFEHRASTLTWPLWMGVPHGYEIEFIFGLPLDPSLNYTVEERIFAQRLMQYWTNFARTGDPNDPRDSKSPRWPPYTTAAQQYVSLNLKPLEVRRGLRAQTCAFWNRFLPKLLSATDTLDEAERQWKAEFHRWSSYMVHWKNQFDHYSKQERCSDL
Experiment: biochemical
Parameters: species or system rat (male Wistar)
Details: rat striatum homogenate; acetylthiocholine 5 mM final; pH 7.2; 10 min preincubation at 37° C.; log-probit analysis; read-out: Inhibitory Concentration (μM) Brain AChE
From the text: Cholinesterases are found throughout the body, both in the brain and in serum. However, only brain acetylcholinesterase (AChE) distribution is correlated with central cholinergic innervation. […] We have determined in vitro inhibition of acetylcholinesterase activity in rat striatum according to the method described below.
In Vitro Inhibition of Acetylcholinesterase Activity in Rat Striatum
The method described below was used in this invention for assaying anticholinesterase activity. This is a modification of the method of Ellman et al., Biochem. Pharmacol. 7, 88 (1961).
1. 0.05M Phosphate buffer, pH 7.2
(c) add (a) to (b) until pH reaches 7.2
4. A 2 mM stock solution of the test drug is made up in a suitable solvent and brought to volume with 0.5 mM DTNB (reagent 3). Drugs are serially diluted (1:10) such that the final concentration (in cuvette) is 10^-4 M and screened for activity. If active, IC50 values are determined from the inhibitory activity of subsequent concentrations.
Enzyme activity is measured with the Beckman DU-50 spectrophotometer. This method can be used for IC50 determinations and for measuring kinetic constants.
Reagents are added to the blank and sample cuvettes as follows:
This program also calculates the rate of absorbance change for each cuvette.
Substrate concentration is 10 mM diluted 1:2 in assay yielding final concentration of 5 mM.
IC50 values are calculated from log-probit analysis.

In order of falling IC50:
1. CN(C)C(=O)Oc1cccc2cc(C3CCNCC3)oc12 [2-(4-PIPERIDINYL)BENZOFURAN-7-YL DIMETHYL CARBAMATE HEMIFUMARATE]  1.9 µM
2. CNC(=O)Oc1cccc2cc(C3CCN(C)CC3)oc12 [2-(1-METHYL-4-PIPERIDINYL)-BENZOFURAN-7-YL METHYL CARBAMATE]  1.8 µM
3. CNC(=O)Oc1cccc2cc(-c3ccncc3)oc12 [2-(4-PYRIDINYL)BENZOFURAN-7-YL METHYL CARBAMATE]  1.2 µM
